Reference: US9340590B2 (priority 2011, dated 2016)
Where two headings read alike, the source gives them in different places. Positions of bridges follow the written chain, without caps; N, C: chain ends. Residues, ends and D or L forms follow the SMILES beside them.

Tests used:
Test in all cases: cell-based
hNav1.3 = hNav1.3 (Homo sapiens, UniProt Q9NY46); settings: IonWorks Quattro, read-out: IWQ Use Nav1.3
hNav1.7 = hNav1.7 (Homo sapiens, UniProt Q15858); assay type: cell-based; settings: IonWorks Quattro, read-out: IWQ Use Nav1.7
hNav1.5 = hNav1.5 (Homo sapiens, UniProt Q14524)
[1] = clamped to −110 mV, depolarized to −10 mV, 5 min after compound, n=2
[2] = IonWorks Quattro, clamped to −110 mV, depolarized to −10 mV, 5 min after compound, n=2, read-out: IWQ Use Nav1.5

Sequence of hNav1.3 (Q9NY46 whole entry, looked up): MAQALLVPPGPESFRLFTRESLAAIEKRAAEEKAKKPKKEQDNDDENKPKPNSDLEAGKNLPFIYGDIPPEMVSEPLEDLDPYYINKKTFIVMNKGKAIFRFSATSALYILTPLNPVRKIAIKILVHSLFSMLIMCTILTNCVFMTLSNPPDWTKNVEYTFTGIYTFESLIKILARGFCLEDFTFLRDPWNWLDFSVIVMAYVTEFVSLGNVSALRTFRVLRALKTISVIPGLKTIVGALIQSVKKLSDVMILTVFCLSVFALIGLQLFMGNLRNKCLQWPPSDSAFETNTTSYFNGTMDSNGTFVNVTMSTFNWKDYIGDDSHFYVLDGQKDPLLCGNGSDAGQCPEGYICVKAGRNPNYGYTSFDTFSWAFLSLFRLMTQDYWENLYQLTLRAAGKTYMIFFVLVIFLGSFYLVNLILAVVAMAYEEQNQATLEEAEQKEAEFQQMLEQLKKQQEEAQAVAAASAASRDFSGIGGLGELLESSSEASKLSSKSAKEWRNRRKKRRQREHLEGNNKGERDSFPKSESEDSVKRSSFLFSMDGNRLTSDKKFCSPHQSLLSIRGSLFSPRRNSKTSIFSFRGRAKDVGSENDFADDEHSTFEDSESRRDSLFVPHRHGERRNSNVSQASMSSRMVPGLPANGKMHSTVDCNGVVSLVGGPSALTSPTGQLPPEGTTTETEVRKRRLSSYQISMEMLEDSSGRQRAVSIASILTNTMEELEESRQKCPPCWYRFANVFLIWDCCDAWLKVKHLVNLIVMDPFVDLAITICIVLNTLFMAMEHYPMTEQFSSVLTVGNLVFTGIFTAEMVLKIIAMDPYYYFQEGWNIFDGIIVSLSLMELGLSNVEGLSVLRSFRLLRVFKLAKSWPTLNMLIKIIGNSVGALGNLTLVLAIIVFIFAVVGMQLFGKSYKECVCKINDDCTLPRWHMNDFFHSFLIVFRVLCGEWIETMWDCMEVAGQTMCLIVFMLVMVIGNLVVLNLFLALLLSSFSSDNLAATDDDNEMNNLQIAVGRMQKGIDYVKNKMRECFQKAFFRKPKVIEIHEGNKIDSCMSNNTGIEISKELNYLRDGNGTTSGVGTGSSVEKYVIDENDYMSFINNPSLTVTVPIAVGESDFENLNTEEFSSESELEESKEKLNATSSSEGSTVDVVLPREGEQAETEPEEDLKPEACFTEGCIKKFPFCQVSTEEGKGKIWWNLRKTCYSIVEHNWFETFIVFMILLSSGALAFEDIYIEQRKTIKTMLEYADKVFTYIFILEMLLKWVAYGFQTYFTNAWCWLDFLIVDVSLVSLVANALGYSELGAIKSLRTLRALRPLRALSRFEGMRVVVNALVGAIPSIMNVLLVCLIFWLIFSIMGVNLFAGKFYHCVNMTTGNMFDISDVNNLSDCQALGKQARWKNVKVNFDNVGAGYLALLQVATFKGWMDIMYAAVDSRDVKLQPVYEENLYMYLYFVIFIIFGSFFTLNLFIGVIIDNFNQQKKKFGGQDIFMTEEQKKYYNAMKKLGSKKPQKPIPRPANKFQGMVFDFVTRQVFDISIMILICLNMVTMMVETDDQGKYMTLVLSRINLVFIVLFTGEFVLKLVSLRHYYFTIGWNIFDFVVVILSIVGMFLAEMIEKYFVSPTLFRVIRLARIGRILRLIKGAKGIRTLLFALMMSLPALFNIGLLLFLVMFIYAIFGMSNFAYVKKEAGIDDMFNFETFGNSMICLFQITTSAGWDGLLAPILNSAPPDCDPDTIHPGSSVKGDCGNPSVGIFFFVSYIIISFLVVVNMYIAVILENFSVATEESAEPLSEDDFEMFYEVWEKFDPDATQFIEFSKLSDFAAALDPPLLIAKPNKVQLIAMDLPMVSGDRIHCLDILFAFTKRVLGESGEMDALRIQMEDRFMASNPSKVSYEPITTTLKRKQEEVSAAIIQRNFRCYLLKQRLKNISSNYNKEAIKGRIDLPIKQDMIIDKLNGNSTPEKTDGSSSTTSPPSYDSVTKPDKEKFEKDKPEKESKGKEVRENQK
Sequence of hNav1.5 (Q14524 whole entry, looked up): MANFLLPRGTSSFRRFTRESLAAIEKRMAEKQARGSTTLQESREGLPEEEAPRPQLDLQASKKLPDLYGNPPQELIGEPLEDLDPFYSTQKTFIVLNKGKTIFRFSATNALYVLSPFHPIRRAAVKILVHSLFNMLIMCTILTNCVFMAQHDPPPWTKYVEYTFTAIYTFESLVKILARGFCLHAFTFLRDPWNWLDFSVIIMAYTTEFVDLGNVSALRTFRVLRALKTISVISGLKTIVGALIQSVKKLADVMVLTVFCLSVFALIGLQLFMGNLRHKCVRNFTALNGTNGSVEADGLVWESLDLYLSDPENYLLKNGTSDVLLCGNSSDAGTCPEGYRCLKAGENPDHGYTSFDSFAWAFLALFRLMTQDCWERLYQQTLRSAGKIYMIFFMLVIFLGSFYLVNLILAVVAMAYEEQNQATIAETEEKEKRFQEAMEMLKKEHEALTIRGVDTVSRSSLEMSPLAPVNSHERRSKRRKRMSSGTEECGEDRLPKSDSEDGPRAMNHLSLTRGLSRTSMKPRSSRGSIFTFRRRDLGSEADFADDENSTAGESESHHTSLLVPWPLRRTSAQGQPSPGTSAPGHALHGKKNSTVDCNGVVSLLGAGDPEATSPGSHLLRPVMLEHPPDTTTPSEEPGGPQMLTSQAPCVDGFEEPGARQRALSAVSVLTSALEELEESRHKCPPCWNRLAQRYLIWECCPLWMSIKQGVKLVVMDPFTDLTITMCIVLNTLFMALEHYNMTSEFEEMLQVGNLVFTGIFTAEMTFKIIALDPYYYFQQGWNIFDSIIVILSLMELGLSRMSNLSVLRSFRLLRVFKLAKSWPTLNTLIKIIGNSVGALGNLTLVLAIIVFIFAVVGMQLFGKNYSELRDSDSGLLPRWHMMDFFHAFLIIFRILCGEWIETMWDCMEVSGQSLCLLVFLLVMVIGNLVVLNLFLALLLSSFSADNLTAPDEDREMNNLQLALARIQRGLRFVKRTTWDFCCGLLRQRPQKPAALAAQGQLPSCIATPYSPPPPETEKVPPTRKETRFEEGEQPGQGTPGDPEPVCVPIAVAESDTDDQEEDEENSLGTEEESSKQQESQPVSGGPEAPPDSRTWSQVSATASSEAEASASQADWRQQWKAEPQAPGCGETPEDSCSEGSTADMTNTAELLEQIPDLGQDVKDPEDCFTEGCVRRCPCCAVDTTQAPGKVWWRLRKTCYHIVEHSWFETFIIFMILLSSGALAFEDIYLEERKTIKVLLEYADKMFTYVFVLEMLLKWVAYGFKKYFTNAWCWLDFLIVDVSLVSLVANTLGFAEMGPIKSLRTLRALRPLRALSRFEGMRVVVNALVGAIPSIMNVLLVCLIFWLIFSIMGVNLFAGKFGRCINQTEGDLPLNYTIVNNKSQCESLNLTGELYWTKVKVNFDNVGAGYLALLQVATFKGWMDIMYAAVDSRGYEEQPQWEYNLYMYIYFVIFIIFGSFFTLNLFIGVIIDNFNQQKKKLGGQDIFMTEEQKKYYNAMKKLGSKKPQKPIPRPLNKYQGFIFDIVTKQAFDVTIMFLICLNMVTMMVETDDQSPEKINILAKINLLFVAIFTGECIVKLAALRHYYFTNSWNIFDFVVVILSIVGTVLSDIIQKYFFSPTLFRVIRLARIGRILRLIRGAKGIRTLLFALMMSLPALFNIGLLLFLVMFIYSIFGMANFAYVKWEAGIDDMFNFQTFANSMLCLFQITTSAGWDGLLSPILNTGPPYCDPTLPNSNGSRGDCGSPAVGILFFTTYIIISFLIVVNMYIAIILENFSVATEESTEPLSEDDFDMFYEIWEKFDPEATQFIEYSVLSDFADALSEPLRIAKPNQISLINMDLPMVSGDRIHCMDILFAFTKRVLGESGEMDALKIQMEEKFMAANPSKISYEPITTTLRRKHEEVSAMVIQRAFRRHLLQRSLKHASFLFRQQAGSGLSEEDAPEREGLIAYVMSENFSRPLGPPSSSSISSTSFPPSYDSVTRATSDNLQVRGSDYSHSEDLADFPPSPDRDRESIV

## CC[C@H](C)[C@@H]1NC(=O)[C@@H]2CSSC[C@@H]3NC(=O)[C@H](C(C)C)NC(=O)[C@H](CC(C)C)NC(=O)[C@H](CC(N)=O)NC(=O)[C@@H]4CCCN4C(=O)[C@H](CCCNC(=N)N)NC(=O)[C@H](CSSC[C@H](NC(=O)[C@@H](N)CC(=O)O)C(=O)N[C@@H](CC(C)C)C(=O)NCC(=O)N[C@@H](Cc4ccccc4)C(=O)N[C@@H](C)C(=O)N[C@@H](CCCNC(=N)N)C(=O)N[C@@H](CCCCN)C(=O)N2)NC(=O)[C@H](CSSC[C@@H](C(=O)N[C@@H](CCCCN)C(=O)N[C@@H](Cc2ccc(O)cc2)C(=O)N[C@H](C(=O)N[C@@H](Cc2ccccc2)C(N)=O)C(C)C)NC(=O)[C@H](Cc2c[nH]c4ccccc24)NC(=O)[C@H](CCCCN)NC(=O)[C@H](Cc2cnc[nH]2)NC(=O)[C@H]([C@@H](C)O)NC(=O)[C@H](CCCNC(=N)N)NC(=O)[C@H](CO)NC3=O)NC(=O)[C@H](CCCCN)NC(=O)[C@H](CC(=O)O)NC(=O)[C@H](CC(N)=O)NC(=O)[C@H](CC(=O)O)NC(=O)[C@@H]2CCCN2C1=O [SEQ ID NO: 23] (H-DCLGFARKCIPDNDKCCRPNLVCSRTHKWCKYVF-NH2; disulfide 2-17, 9-23, 16-30)
hNav1.3; [1]
  IC50: 210 nM
hNav1.7; [1]
  IC50: 510 nM
hNav1.5; [2]
  IC50: 17.4 µM

## CC[C@H](C)[C@@H]1NC(=O)[C@@H]2CSSC[C@@H]3NC(=O)[C@H](C(C)C)NC(=O)[C@H](CC(C)C)NC(=O)[C@H](CC(N)=O)NC(=O)[C@@H]4CCCN4C(=O)[C@H](CCCNC(=N)N)NC(=O)[C@H](CSSC[C@H](NC(=O)[C@H](CC(=O)O)NC(=O)[C@@H](N)CCCCN)C(=O)N[C@@H](CC(C)C)C(=O)NCC(=O)N[C@@H](Cc4ccccc4)C(=O)N[C@@H](CCSC)C(=O)N[C@@H](CCCNC(=N)N)C(=O)N[C@@H](CCCCN)C(=O)N2)NC(=O)[C@H](CSSC[C@@H](C(=O)N[C@@H](CCCCN)C(=O)N[C@@H](Cc2ccc(O)cc2)C(=O)N[C@H](C(=O)N[C@@H](Cc2ccccc2)C(N)=O)C(C)C)NC(=O)[C@H](Cc2c[nH]c4ccccc24)NC(=O)[C@H](CCCCN)NC(=O)[C@H](Cc2cnc[nH]2)NC(=O)[C@H]([C@@H](C)O)NC(=O)[C@H](CCCNC(=N)N)NC(=O)[C@H](CO)NC3=O)NC(=O)[C@H](CCCCN)NC(=O)[C@H](CC(=O)O)NC(=O)[C@H](CC(N)=O)NC(=O)[C@H](CC(=O)O)NC(=O)[C@@H]2CCCN2C1=O [SEQ ID NO: 36]
hNav1.3; [1]
  IC50: 100 nM
hNav1.7; [1]
  IC50: 110 nM
hNav1.5; [2]
  IC50: 8.35 µM

## CC[C@H](C)[C@@H]1NC(=O)[C@@H]2CSSC[C@@H]3NC(=O)[C@H](C(C)C)NC(=O)[C@H](CC(C)C)NC(=O)[C@H](CC(N)=O)NC(=O)[C@@H]4CCCN4C(=O)[C@H](CCCNC(=N)N)NC(=O)[C@H](CSSC[C@H](NC(=O)[C@@H](N)CC(=O)O)C(=O)N[C@@H](CCCCN)C(=O)NCC(=O)N[C@@H](Cc4ccccc4)C(=O)N[C@@H](CCSC)C(=O)N[C@@H](CCCNC(=N)N)C(=O)N[C@@H](CCCCN)C(=O)N2)NC(=O)[C@H](CSSC[C@@H](C(=O)N[C@@H](CCCCN)C(=O)N[C@@H](Cc2ccc(O)cc2)C(=O)N[C@H](C(=O)N[C@@H](Cc2ccccc2)C(N)=O)C(C)C)NC(=O)[C@H](Cc2c[nH]c4ccccc24)NC(=O)[C@H](CCCCN)NC(=O)[C@H](Cc2cnc[nH]2)NC(=O)[C@H]([C@@H](C)O)NC(=O)[C@H](CCCNC(=N)N)NC(=O)[C@H](CO)NC3=O)NC(=O)[C@H](CCCCN)NC(=O)[C@H](CC(=O)O)NC(=O)[C@H](CC(N)=O)NC(=O)[C@H](CC(=O)O)NC(=O)[C@@H]2CCCN2C1=O [SEQ ID NO: 38] (H-DCKGFMRKCIPDNDKCCRPNLVCSRTHKWCKYVF-NH2; disulfide 2-17, 9-23, 16-30)
hNav1.3; [1]
  IC50: 60 nM
hNav1.7; [1]
  IC50: 80 nM
hNav1.5; [2]
  IC50: 6.95 µM

## CC[C@H](C)[C@@H]1NC(=O)[C@@H]2CSSC[C@@H]3NC(=O)[C@H](C(C)C)NC(=O)[C@H](CC(C)C)NC(=O)[C@H](CC(N)=O)NC(=O)[C@@H]4CCCN4C(=O)[C@H](CCCNC(=N)N)NC(=O)[C@H](CSSC[C@H](NC(=O)[C@H](CC(=O)O)NC(=O)[C@@H](N)CCCNC(=N)N)C(=O)N[C@@H](CC(C)C)C(=O)NCC(=O)N[C@@H](Cc4ccccc4)C(=O)N[C@@H](CCSC)C(=O)N[C@@H](CCCNC(=N)N)C(=O)N[C@@H](CCCCN)C(=O)N2)NC(=O)[C@H](CSSC[C@@H](C(=O)N[C@@H](CCCCN)C(=O)N[C@@H](Cc2ccc(O)cc2)C(=O)N[C@H](C(=O)N[C@@H](Cc2ccccc2)C(N)=O)C(C)C)NC(=O)[C@H](Cc2c[nH]c4ccccc24)NC(=O)[C@H](CCCCN)NC(=O)[C@H](Cc2c[nH]cn2)NC(=O)[C@H]([C@@H](C)O)NC(=O)[C@H](CCCNC(=N)N)NC(=O)[C@H](CO)NC3=O)NC(=O)[C@H](CCCCN)NC(=O)[C@H](CC(=O)O)NC(=O)[C@H](CC(N)=O)NC(=O)[C@H](CC(=O)O)NC(=O)[C@@H]2CCCN2C1=O [SEQ ID NO: 61]
hNav1.3; [1]
  IC50: 80 nM
hNav1.7; [1]
  IC50: 170 nM
hNav1.5; [2]
  IC50: 15.1 µM

## CC[C@H](C)[C@@H]1NC(=O)[C@@H]2CSSC[C@@H]3NC(=O)[C@H](C(C)C)NC(=O)[C@H](CC(C)C)NC(=O)[C@H](CC(N)=O)NC(=O)[C@@H]4CCCN4C(=O)[C@H](CCCNC(=N)N)NC(=O)[C@H](CSSC[C@H](NC(=O)[C@@H](N)CC(=O)O)C(=O)N[C@@H](CC(C)C)C(=O)NCC(=O)N[C@@H](Cc4ccccc4)C(=O)N[C@@H](CCCNC(=N)N)C(=O)N[C@@H](CCCNC(=N)N)C(=O)N[C@@H](CCCCN)C(=O)N2)NC(=O)[C@H](CSSC[C@@H](C(=O)N[C@@H](CCCCN)C(=O)N[C@@H](Cc2ccc(O)cc2)C(=O)N[C@H](C(=O)N[C@@H](Cc2ccccc2)C(N)=O)C(C)C)NC(=O)[C@H](Cc2c[nH]c4ccccc24)NC(=O)[C@H](CCCCN)NC(=O)[C@H](Cc2cnc[nH]2)NC(=O)[C@H]([C@@H](C)O)NC(=O)[C@H](CCCNC(=N)N)NC(=O)[C@H](CO)NC3=O)NC(=O)[C@H](CCCCN)NC(=O)[C@H](CC(=O)O)NC(=O)[C@H](CC(N)=O)NC(=O)[C@H](CC(=O)O)NC(=O)[C@@H]2CCCN2C1=O [SEQ ID NO: 64] (H-DCLGFRRKCIPDNDKCCRPNLVCSRTHKWCKYVF-NH2; disulfide 2-17, 9-23, 16-30)
hNav1.3; [1]
  IC50: 5900 nM
hNav1.7; [1]
  IC50: 6980 nM
hNav1.5; IWQ Use Nav1.5
  IC50: 17.6 µM

## CC[C@H](C)[C@@H]1NC(=O)[C@@H]2CSSC[C@@H]3NC(=O)[C@H](C(C)C)NC(=O)[C@H](CC(C)C)NC(=O)[C@H](CC(N)=O)NC(=O)[C@@H]4CCCN4C(=O)[C@H](CCCNC(=N)N)NC(=O)[C@H](CSSC[C@H](NC(=O)[C@@H](N)CC(=O)O)C(=O)N[C@@H](CC(C)C)C(=O)NCC(=O)N[C@@H](Cc4ccccc4)C(=O)N[C@@H](CCSC)C(=O)N[C@@H](CCCNC(=N)N)C(=O)N[C@@H](CCCCN)C(=O)N2)NC(=O)[C@H](CSSC[C@@H](C(=O)N[C@@H](CCCCN)C(=O)N[C@@H](Cc2ccc(O)cc2)C(=O)N[C@H](C(=O)N[C@@H](Cc2ccccc2)C(N)=O)C(C)C)NC(=O)[C@H](Cc2c[nH]c4ccccc24)NC(=O)[C@H](CCCNC(=N)N)NC(=O)[C@H](Cc2cnc[nH]2)NC(=O)[C@H]([C@@H](C)O)NC(=O)[C@H](CCCNC(=N)N)NC(=O)[C@H](CO)NC3=O)NC(=O)[C@H](CCCCN)NC(=O)[C@H](CC(=O)O)NC(=O)[C@H](CC(N)=O)NC(=O)[C@H](CC(=O)O)NC(=O)[C@@H]2CCCN2C1=O [SEQ ID NO: 72, [Arg28]GpTx-1]
hNav1.3; Table 23, use, […]
  IC50: 130 nM
hNav1.7; Table 23, use, […]
  IC50: 80 nM
hNav1.5; IWQ Use Nav1.5 (μM)
  IC50: 8.95 µM

## CC[C@H](C)[C@@H]1NC(=O)[C@@H]2CSSC[C@@H]3NC(=O)[C@H](C(C)C)NC(=O)[C@H](CC(C)C)NC(=O)[C@H](CC(N)=O)NC(=O)[C@@H]4CCCN4C(=O)[C@H](CCCNC(=N)N)NC(=O)[C@H](CSSC[C@H](NC(=O)[C@@H](N)Cc4c[nH]c5ccccc45)C(=O)N[C@@H](CC(C)C)C(=O)NCC(=O)N[C@@H](Cc4ccccc4)C(=O)N[C@@H](CCSC)C(=O)N[C@@H](CCCNC(=N)N)C(=O)N[C@@H](CCCCN)C(=O)N2)NC(=O)[C@H](CSSC[C@@H](C(=O)N[C@@H](CCCCN)C(=O)N[C@@H](Cc2ccc(O)cc2)C(=O)N[C@H](C(=O)N[C@@H](Cc2ccccc2)C(N)=O)C(C)C)NC(=O)[C@H](Cc2c[nH]c4ccccc24)NC(=O)[C@H](CCCCN)NC(=O)[C@H](Cc2cnc[nH]2)NC(=O)[C@H]([C@@H](C)O)NC(=O)[C@H](CCCNC(=N)N)NC(=O)[C@H](CO)NC3=O)NC(=O)[C@H](CCCCN)NC(=O)[C@H](CC(=O)O)NC(=O)[C@H](CC(N)=O)NC(=O)[C@H](CC(=O)O)NC(=O)[C@@H]2CCCN2C1=O [SEQ ID NO: 81] (H-WCLGFMRKCIPDNDKCCRPNLVCSRTHKWCKYVF-NH2; disulfide 2-17, 9-23, 16-30)
hNav1.3; [1]
  IC50: 100 nM
hNav1.7; [1]
  IC50: 50 nM
hNav1.5; IWQ Use Nav1.5
  IC50: 8.79 µM
